{
  "source": "patent US5994402A",
  "about": "“Anti-inflammatory and anti-pyretic method” (priority 1997, dated 1999)",
  "key": {"[1]": {"test_system": "cerebral ischemia-reperfusion injury", "details": "literature; cited from earlier work"}, "[2]": {"test_system": "lung permeability after intratracheal LPS", "assay": "LPS-induced lung injury: lung permeability index (transcapillary 125I-albumin flux)", "type": "in vivo, male Sprague Dawley rats", "details": "for Lung PI (t = 4 hrs): LPS +, mean ± SEM", "method": "(§1) Male Sprague Dawley rats weighing 250-275 g were obtained from Charles River Laboratories (Constante, Quebec). All animal studies were performed in accordance with guidelines set forth by the Toronto Hospital Animal Care Committee and the Canadian Council on Animal Care. Animals were housed in standard wire bottom cages, fed standard rat chow and water ad libitum and were allowed to acclimatize before use. Prior to experimentation, animals were fasted overnight and anesthetized with intraperitoneal sodium pentobarbital (50 mg/kg). A tracheostomy was performed and 0.5 ml of saline containing […] of lipopolysaccharide was instilled followed by 20 mechanically ventilated breaths using a rodent ventilator. Sham animals received 0.5 ml of saline alone. Animals were maintained at 37° C. with the use of warming blankets until recovery from anaesthesia.\n(§2) For examples 11 to 17, systemic GSH depletion in animals was accomplished by administering various doses of DEM or phorone by intraperitoneal injection following an overnight fast\nAt the end of the experimental protocol, rats were ventilated, heparin (100 U) was injected into the right ventricle, and 1 ml of blood was withdrawn by cardiac puncture. Following exsanguination, lungs were perfused blood-free by cannulating the pulmonary artery and infusing 10 ml of a low-potassium dextran solution containing 0.5 mg/L of PGE1. The left ventricle, left atria and mitral valve were opened widely to allow free drainage of effluent. The right lung was immediately frozen in liquid nitrogen for assay of non-protein thiols and ICAM-1 and TNF-a mRNA expression, myeloperoxidase activity, as described below. The left lung was used to calculate a permeability index (PI) as follows: [formula] Thioglycollate-induced Peritonitis"}, "lung GSH": {"test_system": "lung GSH", "assay": "Lung glutathione / non-protein thiol assay (DTNB)", "type": "in vivo, male Sprague Dawley rats", "details": "for Lung GSH (t = 4 hrs): LPS +, mean ± SEM", "method": "as §1, §2\n(§3) Quantitation of total lung and endothelial non-protein sulfhydryls (NPSH) was assessed using a DTNB based assay as described by Jocelyn. Lung tissue was thawed and weighed, and approximately 0.25 gm was homogenized in 2 ml of 5% SSA. The homogenate was sonicated for 30 seconds and centrifuged for 10 minutes at 10 000 g. The resultant acid thiol extract was assayed for NPSH by quantitating the reduction of DTNB through its conversion to 5-thio-2-nitrobenzoic acid (TNB) at 412 nm using a spectrophotometer. Sample values were then calculated from a standard curve generated using known amounts of GSH and are expressed as GSH equivalents per gram of lung tissue.\nQuantitation of lung non-protein sulfhydryls (NPSH) was assessed using a DTNB based assay as described by Jocelyn ^17. Lung tissue was thawed and weighed, and approximately 0.25 gm was homogenized in 2 ml of 5% SSA. The homogenate was sonicated for 30 seconds and centrifuged for 10 minutes at 10 000 g. The resultant acid thiol extract was assayed for NPSH by quantitating the is reduction of DTNB through its conversion to 5-thio-2-nitrobenzoic acid (TNB) at 412 nm using a spectrophotometer. Sample values were then calculated from a standard curve generated using known amounts of GSH and are expressed as GSH equivalents per gram of lung tissue."}, "RHEC": {"test_system": "RHEC", "assay": "Cytotoxicity to RHEC (LDH, trypan blue, monolayer integrity)", "type": "cell-based, rat", "details": "for supernatant lactate dehydrogenase activity: DEM, mean ± SEM", "excerpt": "To determine whether the reduction in ICAM-1 expression was a direct effect of DEM, we attempted to recapitulate the effect in vitro using rat heart endothelial cells (RHEC) activated by either LPS or TNF-a.\n(§4) ICAM-1 is expressed on a number of cells present in the lung including endothelial cells, macrophages, neutrophils and alveolar epithelial cells {3224}. Since DEM served to reduced PMN sequestration In the lung, we hypothesized that an effect on endothelial cell ICAM-1 expression might be responsible. To test this possibility, we modeled the system in vitro using RHEC activated by either LPS or TNF-a. […] To determine whether the effect of GSH depletion on ICAM-1 expression was species specific, this parameter was similarly evaluated in HUVEC.\nEndothelial cells were isolated from the hearts of 5-day old rats according to the method of Kasten ^22 and allowed to grow to confluence. For experiments 11 to 17, human umbilical vein endothelial cells (HUVEC) were isolated as previously described. The endothelial cells were harvested using trypsin-EDTA treatment and seeded into 96 well, flat bottomed microtitre plates in minimal essential medium with 20% fetal calf serum. When the monolayers had reached confluence (approximately 4 days) cells were pretreated with diethylmaleate for 30 minutes followed by activation with either LPS or TNF-a. After 6 hours, supernatants were collected for measurement of lactate dehydrogenase (LDH) activity. Cells were washed twice with RPMI/5% fetal calf serum and incubated with mouse anti-rat ICAM-1 mAb for 1 hour, washed, and then incubated with peroxidase-conjugated goat anti-mouse IgG for 1 hour. Cells were washed again and color development initiated by the addition of the substrate, o-phenyidiamine hydrochloride. After 18 minutes, the reaction was stopped with 3 M sulfuric acid and the optical density at 492 nm determined using a microtitre plate reader. Data are expressed as the change in absorption from baseline. Quantitation of supernatant LDH activity as a measure of cytotoxicity was determined using spectrophotometric methods as previously described ^23."}, "[3]": {"test_system": "skin vascular permeability", "assay": "LPS dermal inflammation: skin permeability index", "type": "in vivo, Swiss Webster mice", "details": "for PI (mean ± SEM): 24 h", "method": "Swiss Webster mice were injected intradermally with saline or LPS (30 μg) with or without ip DEM or vehicle. Injection sites were harvested after 24 hours and evaluated for change in vascular permeability, using I^125 -labelled albumin and for levels of ICAM-1 mRNA (Table III)."}, "[4]": {"test_system": "antigen-induced arthritis", "assay": "Antigen-induced arthritis (AIA)", "type": "in vivo, Lewis rats", "details": "DEM 6 mmole/kg ip 1 h prior to antigen; 3+ without DEM", "method": "We examined the effect of intracellular thiol depletion in antigen-induced arthritis (AIA) with the administration of diethylmaleate (DEM) which is known to deplete glutathione. AIA was induced by sensitizing Lewis rats with 2 subcutaneous injections of methylated bovine serum albumin (1 mg/ml), then administering an intra-articular injection of mBSA."}, "[5]": {"test_system": "kidney transplant recipients", "assay": "Kidney transplant survival", "type": "in vivo, black 6 mouse donor to C3H mouse", "details": "DEM 6 mmol/kg to donor and recipient; some mice", "excerpt": "A kidney from a black 6 mouse was transplanted into a C3H mouse in a sample of ten test mice and ten control mice. This is a major mismatch. In the test group, donors were given a single injection of DEM (6mmol/kg) immediately prior to the harvest of the kidney. Recipient mice received a single dose prior to insertion of the kidney. No other agents were used. In the control group, donors and recipients were not given an injection of DEM."}, "[6]": {"test_system": "intracellular GSH levels in RHEC", "assay": "Intracellular GSH in RHEC", "type": "cell-based, rat", "details": "DEM 250 mM (so in the source)", "excerpt": "as §4, §3"}, "[7]": {"details": "phorone 250 mg/kg ip 1 h prior to LPS"}},
  "data": [
    {"smiles": "CCCCS(=N)(=O)CCC(N)C(=O)O", "note": "(stereo not shown) [BSO, buthionine sulfoximine]", "values": [
      {"measurement": "mortality following cerebral ischemia-reperfusion injury", "setting": "[1]", "value": "reduced mortality"}
    ]},
    {"smiles": "CC(C)=CC(=O)C=C(C)C", "note": "[Phorone, diisopropylidene acetone]", "values": [
      {"measurement": "LPS-induced increase in lung permeability", "setting": "[2]; [7]", "value": "almost complete prevention of the increase in lung permeability"},
      {"measurement": "reduction in lung GSH levels", "setting": "lung GSH; [7]", "value": "comparable reduction in lung GSH levels"}
    ]},
    {"smiles": "CCOC(=O)/C=C\\C(=O)OCC", "note": "[DEM, diethylmaleate]", "values": [
      {"measurement": "cell viability (trypan blue exclusion)", "setting": "RHEC; RHEC", "value": "did not affect cell viability"},
      {"measurement": "integrity of the cell monolayer", "setting": "RHEC; RHEC", "value": "nor alter the integrity of the cell monolayer"},
      {"measurement": "supernatant lactate dehydrogenase levels", "setting": "RHEC; RHEC", "value": "unaffected"},
      {"measurement": "supernatant lactate dehydrogenase activity", "setting": "RHEC; RHEC treatment: LPS (1 mg/ml)", "value": "33.0 ± 4.0", "unit": "U/L"},
      {"measurement": "supernatant lactate dehydrogenase activity", "setting": "RHEC; RHEC treatment: TNF-a (100 ng/ml)", "value": "33.5 ± 2.5", "unit": "U/L"},
      {"measurement": "supernatant lactate dehydrogenase activity", "setting": "RHEC; RHEC treatment: control", "value": "32.5 ± 3.5", "unit": "U/L"},
      {"measurement": "skin permeability index, DEM alone", "setting": "[3]; DEM alone", "value": "no effect"},
      {"measurement": "PI (mean ± SEM)", "setting": "[3]; LPS id + DEM 3 mmol/kg ip", "value": "4.03 ± 0.43"},
      {"measurement": "PI (mean ± SEM)", "setting": "[3]; LPS id + DEM 6 mmol/kg ip, p < 0.001 vs LPS", "value": "0.84 ± 0.28"},
      {"measurement": "Lung PI (t = 4 hrs)", "setting": "[2]; DEM injected at -1 h", "value": "0.06 ± 0.02"},
      {"measurement": "Lung PI (t = 4 hrs)", "setting": "[2]; DEM injected at -3 h", "value": "0.09 ± 0.02"},
      {"measurement": "quantitative histopathology score", "setting": "[4]", "value": 0},
      {"measurement": "survival of recipients", "setting": "[5]", "value": "40 to 50", "unit": "days"},
      {"measurement": "Lung GSH (t = 4 hrs)", "setting": "lung GSH; DEM injected at 0 h", "value": "278 ± 18"},
      {"measurement": "Lung GSH (t = 4 hrs)", "setting": "lung GSH; DEM injected at +2 h", "value": "361 ± 16"},
      {"measurement": "Lung GSH (t = 4 hrs)", "setting": "lung GSH; DEM injected at -1 h", "value": "185 ± 48"},
      {"measurement": "Lung GSH (t = 4 hrs)", "setting": "lung GSH; DEM injected at -3 h", "value": "591 ± 118"},
      {"measurement": "reduction in intracellular GSH levels", "setting": "[6]", "value": "≈ 75%"},
      {"measurement": "intracellular GSH levels", "setting": "[6]; No DEM: 6.74±0.08, p<0.01", "value": "1.66±0.1", "unit": "nmoles/106 cells"}
    ]}
  ]
}
